Results taken from patent US11389415B2, “Methods of regulating cannabinoid receptor activity-related disorders and diseases” (The United States of America as represented by the …, priority 2012, dated 2022).
Several values for one entry are separate records, joined by “and”; a condition that tells them apart may be missing. Identical values can stand only once.

How the values were obtained:
[1] = MNF accumulation in vivo in C6 glioma tumors; design: species or system mouse; settings: C6 xenograft tumors at completion of study
Procedure: Evaluation of MNF accumulation in vivo in C6 glioma tumors. The accumulation of MNF in vivo in C6 tumor xenografts in athymic mice was assessed in comparison with vehicle-treated tumor-bearing animals. The frozen tumor samples were thawed, and then homogenized. The concentration of MNF and its metabolites was determined by HPLC followed by LC-MS/MS. In brief, the assays were conducted using an Eclipse XDB-C18 guard column (4.6 mm×12.5 mm) and an Atlantis HILIC column (150×2.1 mm ID, […]). The mobile phase consisted of water containing 0.1% formic acid as component A and acetonitrile as component B. A linear gradient was run as follows: 0 minutes 95% B; 5 minutes 60% B; 6 minutes 80% B; 10 minutes 95% B at a flow rate of 1.0 ml/minute. The total run time was 15 minutes per sample. Identification and quantification of the analytes was accomplished using an API-4000 LC-MS/MS in positive electrospray ionization mode and data was acquired employing multiple reaction monitoring (MRM) and the following MRM transitions: MNF (369-200); MNF-Gluc (545-200). Tumor tissues from vehicle-injected mice were used as controls.

CYP3A4 = target: T1, CYP3A4 (Homo sapiens, UniProt P08684); assay: CYP inhibition in human liver microsomes, CYP3A4; format: in vitro ADME; settings: 10 μM, 20 minutes, 37° C.
T1 construct: from tissue; host or cells: human liver microsomes
T1 sequence (P08684 whole entry): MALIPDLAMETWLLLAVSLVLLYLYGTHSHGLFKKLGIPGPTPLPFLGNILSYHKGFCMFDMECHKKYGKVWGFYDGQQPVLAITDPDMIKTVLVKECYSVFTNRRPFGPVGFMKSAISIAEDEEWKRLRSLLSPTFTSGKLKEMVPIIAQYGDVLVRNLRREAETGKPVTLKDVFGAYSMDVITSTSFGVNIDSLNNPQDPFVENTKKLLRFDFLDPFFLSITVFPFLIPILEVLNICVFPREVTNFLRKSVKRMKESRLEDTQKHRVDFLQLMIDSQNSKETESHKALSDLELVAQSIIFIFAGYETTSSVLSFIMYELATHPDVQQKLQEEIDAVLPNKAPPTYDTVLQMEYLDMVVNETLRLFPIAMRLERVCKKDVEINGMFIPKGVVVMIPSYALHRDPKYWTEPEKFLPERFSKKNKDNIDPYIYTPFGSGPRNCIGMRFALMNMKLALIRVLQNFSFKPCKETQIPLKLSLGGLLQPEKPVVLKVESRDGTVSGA
Procedure: Incubations containing known CYP inhibitors were also included as positive controls. Formation of the model substrate metabolites was measured by LC-MS/MS and compared to control incubations (incubation of substrates with microsomes and cofactors, no test articles or inhibitors). CYP activity in presence of test compound (MNF) that was less than 70% of control was considered significant. MNF (10 μM) inhibited CYP2D6 and CYP3A4 to less than 70% of the control. Further, the primary metabolite was determined to be O-demethylated-MNF. These studies indicate that MNF alters the metabolism of other drugs or endogenous compounds that are substrates for CYP2D6 and/or CYP3A4 isoforms, when present in the plasma or liver at 10 μM or higher.

ERK1/2 = ERK1/2 phosphorylation (GPR55 downstream signaling) in HepG2 cells; format: cell-based, human
Procedure: Western blot analysis. For detection of intracellular signaling proteins, cells were lysed in radioimmunoprecipitation buffer containing EGTA and EDTA (Boston BioProducts, Ashland, Mass.). The lysis buffer contained a protease inhibitor cocktail (Sigma-Aldrich) and phosphatase inhibitor cocktail (Calbiochem, San Diego, Calif.). Equivalent amount of proteins (14 and 54 μg/well for PANC-1 and HepG2 cells, respectively) were separated on 4 to 12% precast gels (Invitrogen, Carlsbad, Calif.) using SDS-polyacrylamide gel electrophoresis under reducing conditions and then electrophoretically transferred onto polyvinylidene fluoride membrane (Invitrogen). Western blots were performed according to standard methods, which involved blocking in 5% non-fat milk and incubated with the antibody of interest, followed by incubation with a secondary antibody conjugated with the enzyme horseradish perodixase. The detection of immunoreactive bands was performed by chemiluminescence using the ECL Plus Western Blotting Detection System (GE Healthcare, Piscataway, N.J.). The quantification of bands was done by volume densitometry by using ImageJ software. The rabbit polyclonal antibodies against EGFR were obtained from Cell Signaling Technology, Inc. (Beverly, Mass.) and the monoclonal anti-Hsp90 was purchased from Santa Cruz Biotechnology, Inc. (Santa Cruz, Calif.).
Effect of MNF on O-1602-mediated increase in cell signaling. Serum-starved cells were pretreated in the absence or presence of 1 μM MNF for 10 minutes followed by a 10 minute incubation with 0, 2.5 and 10 μM O-1602 or 10% FBS, after which the levels of total ERK2 and phosphorylated forms of ERK1/2 (pErk1/2, Thr202/Tyr204), were determined by Western blotting technique. All primary antibodies were purchased from Cell Signaling Technology and used at a dilution recommended by the manufacturer.

[2] = Plasma and brain tissue concentrations after IV administration in Sprague-Dawley rats; format: in vivo, rat; settings: for AUCinf / AUClast / Cmax / t1/2 (hr), elimination phase half life / C^0 (ng/ml), plasma concentration extrapolated to time 0 / Cl (ml/hr/kg), whole body clearance / V (l/kg), apparent volume of distribution: male Sprague-Dawley rats; for AUCinf / AUClast / Cmax / t1/2 (hr), elimination phase half life: plasma
Procedure: To determine plasma and brain tissue concentrations of MNF, the concentrations of MNF and its metabolites in plasma and brain tissue samples obtained from male Sprague-Dawley rats were determined after administration of a single IV dose of 10 mg/kg of MNF. The assays were conducted using an Eclipse XDB-C18 guard column (4.6 mm×12.5 mm) and an Atlantis HILIC column (150×2.1 mm ID, […]). The mobile phase consisted of water containing 0.1% formic acid as Component A and acetonitrile as component B. A linear gradient was run as follows: 0 minutes 95% B; 5 minutes 60% B; 6 minutes 80% B; 10 minutes 95% B at a flow rate of 1.0 ml/minutes. The total run time was 15 minutes per sample. Identification and quantification of the analytes was accomplished using an API-4000 LC-MS/MS in positive electrospray ionization mode and data was acquired employing multiple reaction monitoring (MRM) and the following MRM transitions: MNF (369-200); MNF-Gluc (545-200).
Ten mg/kg MNF was administered IV to male Sprague-Dawley rats and the plasma concentrations of MNF were determined between 10 minutes and 24 hours post administration with the levels measured in 3 animals per time point. In the same study, the concentration of MNF in brain tissue was measured between 10 and 60 minutes after administration with 3 animals per time point. The MNF concentration in brain tissue was 200 ng/mg tissue at 10 minutes after administration and peaked at 30 minutes at 800 ng/mg tissue. The relative distribution between the concentration of MNF in blood (measured as ng/ml) and brain tissue (measured as ng/mg tissue) was 0.2 at 10 minutes and 1.0 at 30 minutes and 60 minutes reflecting an equivalent distribution between both the central and peripheral body compartments. […] Further, the apparent volume of distribution (V) is high indicating extensive tissue distribution.

[3] = 10 mg/kg IV, individual rat, 10 mg/kg

COc1ccc(C[C@@H](C)NC[C@H](O)c2cc(O)cc(O)c2)c2ccccc12 [(R,R′)-MNF, (R,R′)-4′-methoxy-1-naphthylfenoterol]
tissue concentration of MNF in tumor ([1]; cohort 1, n=9): 141.0±52.5 ng/ml/g tissue | tissue concentration of MNF in tumor ([1]; cohort 2, n=7): 214.4±65.5 ng/ml/g tissue | CYP3A4 activity in presence of test compound (CYP3A4): less than 70 % of the control | effect on O-1602-mediated ERK phosphorylation (ERK1/2; HepG2, 1 μM pretreatment 10 minutes): abrogated O-1602 responsiveness | effect on serum-induced ERK phosphorylation (ERK1/2; HepG2, 1 μM pretreatment, 10% FBS): potently inhibited serum-induced ERK phosphorylation in both cell lines | AUCinf ([2]; 10 mg/kg IV, Mean): 4378.0 ng·h/mL | AUClast ([2]; 10 mg/kg IV, Mean): 3519.3 ng·h/mL | Cmax ([2]; 10 mg/kg IV, Mean): 1823.0 ng/mL | t1/2 (hr), elimination phase half life ([2]; 10 mg/kg IV, Mean): 13.8 h | AUCinf [2, 3]: 4103.6 ng·h/mL and 5335.2 ng·h/mL and 3695.2 ng·h/mL | AUClast [2, 3]: 3582.2 ng·h/mL and 4070.7 ng·h/mL and 2905.1 ng·h/mL | Cmax [2, 3]: 1780.7 ng/mL and 2304.9 ng/mL and 1383.4 ng/mL | t1/2 (hr), elimination phase half life [2, 3]: 9.8 h and 18.6 h and 13.0 h | C^0 (ng/ml), plasma concentration extrapolated to time 0 ([2]; 10 mg/kg IV, Mean): 3168.5 ng/mL | Cl (ml/hr/kg), whole body clearance ([2]; 10 mg/kg IV, Mean): 2339.1 mL/h/kg | V (l/kg), apparent volume of distribution ([2]; 10 mg/kg IV, Mean): 45.1 L/kg | C^0 (ng/ml), plasma concentration extrapolated to time 0 [2, 3]: 3033.4 ng/mL and 4131.4 ng/mL and 2340.7 ng/mL | Cl (ml/hr/kg), whole body clearance [2, 3]: 2436.9 mL/h/kg and 1874.4 mL/h/kg and 2706.2 mL/h/kg | V (l/kg), apparent volume of distribution [2, 3]: 34.3 L/kg and 50.4 L/kg and 50.6 L/kg | MNF concentration in brain tissue ([2]; rats, 10 mg/kg IV, 10 minutes after administration): 200 ng/mg tissue | MNF concentration in brain tissue (peak) ([2]; rats, 10 mg/kg IV, 30 minutes after administration): 800 ng/mg tissue | passage through the blood brain barrier ([2]; rats, IV): capable of passing through the blood brain barrier
